Where two headings read alike, the source gives them in different places.
Test system: secretion of ApoB by HepG2 cells
Assay: ApoB secretion inhibition assay in HepG2 cells (ApoB ELISA)
Assay type: cell-based, human
Settings: read-out: IC50 ApoB Assay
Method: The ability of the compounds of the present invention to inhibit the secretion of ApoB can be determined using the following cell-based assay, which measures the secretion of ApoB by HepG2 cells. ApoB has two possible metabolic fates: entrance into the lipoprotein assembly pathway within the lumen of the endoplasmic reticulum (ER), or degradation in the cytoplasm by the ubiquitin-dependent proteasome. The destiny of ApoB is determined by the relative availability of individual lipids, which is controlled by MTP (Davis, Biochim. Biophys. Acta, 1999, 1440, 1-31).
HepG2 cells (ATCC, HB-8065) are seeded in 96-well plates in DMEM with 10% FBS+pen/strep at a density of 1×10^5 cells/well (100 μl /well). Twenty-four hours after seeding, the plate is aspirated and the media changed to DMEM with 1% BSA and pen/strep, and the cells are serum-starved for 24 hours. After 24 hour serum-starvation, the plate is aspirated again and the cells are then treated for 24 hours with or without compound in DMEM with 1% BSA, 0.3 mM OA (OA complexed to BSA at a 2:1 ratio) and pen/strep. The final concentration of DMSO in the assay (from compound and control) is 0.1%. After 24 hour treatment, conditioned media is collected in an empty 96-well plate.
Cellular viability is measured using the cell permeable dye, AlamarBlue™. This dye undergoes electron reduction in viable cells but not dead cells. The reduced dye product gives a fluorescent signal which can be monitored with a fluorescence plate reader (excitation 545 nm and emission 575 nm). The amount of fluorescence generated in a given well is proportional to the number of viable cells. After collection, the 96-well plate is re-fed with 100 μl media (DMEM with 10% FBS) and 10 μl Alamar Blue™ per well, incubated for 2 hours and then read in a fluorescence plate reader.
ApoB secretion from HepG2 cells is quantitated by testing the conditioned media at […] using an ApoB ELISA kit (ALerCHEK) according to the manufacturer's instructions. The ELISA assay for ApoB is performed as follows: a polyclonal antibody against human ApoB (Chemicon) is diluted 1:1000 in carbonate-bicarbonate buffer and 100 μl are added to each well of a 96-well plate (NUNC). After 5 hours incubation at room temperature, the antibody solution is removed and wells are washed four times with PBS/0.05% TweenD 20 (Cayman Chemical Co.). Non-specific sites on the plastic plate are blocked by incubating wells for 1 to 1.5 hours in a solution of 0.5% BSA and 0.1% TweenD 20 made in PBS. One hundred microliters of a 1:20 dilution of growth medium from the HepG2 cells (made in 0.004% TweenD 20/1% BSA in PBS) is added to each well and incubated for 3 hours at room temperature. Wells are aspirated and washed four times (0.05% TweenD 20 in PBS) prior to adding 100 μl of a 1:1000 dilution (5 μg/ml) of the secondary antibody, mouse anti-human ApoB (Chemicon). After 2 hours incubation at room temperature, this solution is aspirated and the wells are again washed 4 times as above. One hundred microliters of peroxidase-conjugated affinity purified goat anti-mouse IgG (H+L) (Jackson ImmunoResearch Laboratories) (1:10,000 dilution in PBS/1% BSA/0.1% TweenD 20) is then added to each well and incubated for 1 hour at room temperature. After aspirating, the wells are washed 4 times as above and 50 μl of 1-step Ultra TMB ELISA reagent (Pierce) is added to each well and incubated for 5 minutes. The reaction is stopped by the addition of 50 μl of 2 NH2SO4 and absorbance of each well is read at 450 nm.

[1] = Homo sapiens, HepG2, Table 6, assay of Example 2

For `CC(C)(C)c1ccc(-c2ccccc2C(=O)Nc2ccc3nc(C(=O)N[C@H](C(=O)NCc4ccccc4)c4ccccc4)sc3c2)cc1` [Compound 6], the IC50 [1] was 0.004 µM.

For `CCCCCNC(=O)[C@@H](NC(=O)c1cccc(-c2csc(NC(=O)c3ccccc3-c3ccc(C(C)(C)C)cc3)n2)c1)c1ccccc1` [Compound 11], the IC50 [1] was 0.296 µM.

Work on `CN(Cc1ccc(F)cc1)C(=O)[C@@H](NC(=O)c1cccc(-c2csc(NC(=O)c3ccccc3-c3ccc(C(C)(C)C)cc3)n2)c1)c1ccccc1` [Compound 13] yielded an IC50 [1] of 0.238 µM.

`CCCCCNC(=O)[C@@H](NC(=O)c1ccccc1-c1csc(NC(=O)c2ccccc2-c2ccc(C(C)(C)C)cc2)n1)c1ccccc1` [Compound 15] was tested, and the IC50 [1] was greater than 10 µM.

For `CC(C)(C)c1ccc(-c2ccccc2C(=O)Nc2nc(-c3ccccc3C(=O)N[C@H](C(=O)N3CCCC3)c3ccccc3)cs2)cc1` [Compound 16, (S)-4′-tert-butyl-N-(4-(2-(2-oxo-1-phenyl-2-(pyrrolidin-1-yl)ethylcarbamoyl)phenyl)thiazol-2-yl)biphenyl-2-carboxamide], the IC50 [1] was 1.1 µM.

Compound `CN(Cc1ccc(F)cc1)C(=O)[C@@H](NC(=O)c1ccccc1-c1csc(NC(=O)c2ccccc2-c2ccc(C(C)(C)C)cc2)n1)c1ccccc1` [Compound 17] has an IC50 [1] greater than 10 µM.

For `CC(C)(C)c1ccc(-c2ccccc2C(=O)Nc2ccc3nc(C(=O)O)sc3c2)cc1` [Compound 18], the IC50 [1] was 2.7 µM.

`CN(Cc1ccc(F)cc1)C(=O)[C@@H](NC(=O)c1nc2ccc(N)cc2s1)c1ccccc1` [Compound 19] was tested, and the IC50 [1] was greater than 10 µM.

With `CC(C)(C)c1ccc(-c2ccccc2C(=O)NCC23CCC(C(=O)N[C@H](C(=O)N4CCCC4)c4ccccc4)(CC2)CC3)cc1` [Compound 20] the IC50 [1] was 0.095 µM.

Work on `CC(C)(C)c1ccc(-c2ccccc2C(=O)NCC23CCC(C(=O)N[C@H](C(=O)N4CCC(F)(F)C4)c4ccccc4)(CC2)CC3)cc1` [Compound 21] yielded an IC50 [1] of 0.19 µM.

For `CC(C)(C)c1ccc(-c2ccccc2C(=O)NCC23CCC(C(=O)N[C@H](C(=O)N4Cc5ccccc5C4)c4ccccc4)(CC2)CC3)cc1` [Compound 22], the IC50 [1] was 0.253 µM.

Compound `CC(C)(C)c1ccc(-c2ccccc2C(=O)Nc2ccc3nc(C(=O)N[C@H](C(=O)N4Cc5ccccc5C4)c4ccccc4)sc3c2)cc1` [Compound 23] has an IC50 [1] of 0.0216 µM.

`Cc1noc(-c2ccccc2C(=O)Nc2ccc3nc(C(=O)N[C@H](C(=O)N(C)Cc4ccc(F)cc4)c4ccccc4)sc3c2)n1` [Compound 25] showed an IC50 [1] of 0.0594 µM.

With `CC(C)(C)c1ccc(-c2ccccc2C(=O)Nc2nc(-c3cccc(C(=O)N[C@H](C(=O)N4CCC(F)(F)C4)c4ccccc4)c3)cs2)cc1` [Compound 26] the IC50 [1] was 0.0772 µM.

`CC(C)(C)c1ccc(-c2ccccc2C(=O)Nc2nc(-c3cccc(C(=O)N[C@H](C(=O)N4Cc5ccccc5C4)c4ccccc4)c3)cs2)cc1` [Compound 27] showed an IC50 [1] of 0.318 µM.

In the case of `CN(Cc1ccc(F)cc1)C(=O)[C@@H](NC(=O)c1nc2ccc(NC(=O)c3ccccc3-c3cccnc3)cc2s1)c1ccccc1` [Compound 28], the IC50 [1] is reported as 0.158 µM.

Work on `CN(Cc1ccc(F)cc1)C(=O)[C@@H](NC(=O)c1nc2ccc(NC(=O)c3ccccc3-n3cnnn3)cc2s1)c1ccccc1` [Compound 29] yielded an IC50 [1] of 4.2 µM.

`CN(Cc1ccc(F)cc1)C(=O)[C@@H](NC(=O)c1nc2ccc(NC(=O)c3ccccc3-n3cccn3)cc2s1)c1ccccc1` [Compound 31] gave an IC50 [1] of 0.0931 µM.

In the case of `CC(C)(C)c1ccc(-c2ccccc2C(=O)Nc2ccc3nc(C(=O)N[C@@H](C(=O)N4CCCC4)c4ccccc4)sc3c2)cc1` [Compound 34], the IC50 [1] is reported as 0.0348 µM.

`CN(Cc1ccc(F)cc1)C(=O)[C@H](NC(=O)c1nc2ccc(NC(=O)c3ccccc3-c3ccc(C(C)(C)C)cc3)cc2s1)c1ccccc1` [Compound 35] was tested, and the IC50 [1] was 0.0098 µM.

`CN(Cc1ccc(F)cc1)C(=O)[C@@H](NC(=O)c1ccc(-c2csc(NC(=O)c3ccccc3-c3ccc(C(C)(C)C)cc3)n2)cc1)c1ccccc1` [Compound 37] was tested, and the IC50 [1] was 0.0353 µM.

With `CN(Cc1ccc(F)cc1)C(=O)[C@@H](NC(=O)c1nc2ccc(NC(=O)c3ccccc3-c3nc4ccccc4[nH]3)cc2s1)c1ccccc1` [Compound 39] the IC50 [1] was 0.256 µM.

With `O=C(N[C@H](C(=O)N1CCCC1)c1ccccc1)c1nc2ccc(NC(=O)c3ccccc3-c3cn4ccsc4n3)cc2s1` [Compound 43] the IC50 [1] was 0.105 µM.

`O=C(N[C@H](C(=O)N1CCCCC1)c1ccccc1)c1nc2ccc(NC(=O)c3ccccc3-c3cn4ccsc4n3)cc2s1` [Compound 44] showed an IC50 [1] of 1.61 µM.

`CC(C)(C)c1ccc(-c2ccccc2C(=O)NCC23CCC(C(=O)N[C@H](C(=O)N4CCCCC4)c4ccccc4)(CC2)CC3)cc1` [Compound 45] showed an IC50 [1] of 0.0982 µM.

`CC(C)(C)c1ccc(-c2ccccc2C(=O)NCC23CCC(C(=O)N[C@H](C(=O)NC4CCCC4)c4ccccc4)(CC2)CC3)cc1` [Compound 46] was tested, and the IC50 [1] was 0.151 µM.

`CN(C(=O)[C@@H](NC(=O)C12CCC(CNC(=O)c3ccccc3-c3ccc(C(C)(C)C)cc3)(CC1)CC2)c1ccccc1)C1CCCC1` [Compound 47] gave an IC50 [1] of 0.0788 µM.

Compound `CC(C)(C)c1ccc(-c2ccccc2C(=O)NCC23CCC(C(=O)N[C@H](C(=O)NC4CCCCC4)c4ccccc4)(CC2)CC3)cc1` [Compound 48] has an IC50 [1] of 0.23 µM.

Work on `CC(C)(C)c1ccc(-c2ccccc2C(=O)NCC23CCC(C(=O)N[C@H](C(=O)NCC4CC4)c4ccccc4)(CC2)CC3)cc1` [Compound 49] yielded an IC50 [1] of 0.0603 µM.

`CC(C)(C)NC(=O)[C@@H](NC(=O)C12CCC(CNC(=O)c3ccccc3-c3ccc(C(C)(C)C)cc3)(CC1)CC2)c1ccccc1` [Compound 50] showed an IC50 [1] of 0.165 µM.

For `CN(C(=O)[C@@H](NC(=O)c1nc2ccc(NC(=O)c3ccccc3-c3cn4ccsc4n3)cc2s1)c1ccccc1)C1CCCC1` [Compound 51], the IC50 [1] was 0.872 µM.

`CC(C)(C)NC(=O)[C@@H](NC(=O)c1nc2ccc(NC(=O)c3ccccc3-c3cn4ccsc4n3)cc2s1)c1ccccc1` [Compound 52] gave an IC50 [1] of 0.248 µM.

Compound `CN(C(=O)[C@@H](NC(=O)c1nc2ccc(NC(=O)c3ccccc3-c3cn4ccsc4n3)cc2s1)c1ccccc1)C(C)(C)C` [Compound 53] has an IC50 [1] of 4.18 µM.

`CN(Cc1ccc(F)cc1)C(=O)[C@@H](NC(=O)c1nc(-c2ccc(NC(=O)c3ccccc3-c3ccc(C(C)(C)C)cc3)cc2)cs1)c1ccccc1` [Compound 56, (S)-4-(4-(4′-tert-butylbiphenyl-2-ylcarboxamido)phenyl)-N-(2-((4-fluorobenzyl)(methyl)amino)-2-oxo-1-phenylethyl)thiazole-2-carboxamide] was tested, and the IC50 [1] was 0.846 µM.

Compound `CC(C)(C)c1ccc(-c2ccccc2C(=O)Nc2ccc(-c3csc(C(=O)N[C@H](C(=O)N4CCCC4)c4ccccc4)n3)cc2)cc1` [Compound 57, (S)-4-(4-(4′-tert-butylbiphenyl-2-ylcarboxamido)phenyl)-N-(2-oxo-1-phenyl-2-(pyrrolidin-1-yl)ethyl)thiazole-2-carboxamide] has an IC50 [1] of 0.272 µM.

`CN(C(=O)[C@@H](NC(=O)C12CCC(CNC(=O)c3ccccc3-c3ccc(C(C)(C)C)cc3)(CC1)CC2)c1ccccc1)C1CCCCC1` [Compound 58] showed an IC50 [1] of 0.3 µM.

`CN(C(=O)[C@@H](NC(=O)c1nc2ccc(NC(=O)c3ccccc3-c3cn4ccsc4n3)cc2s1)c1ccccc1)C1CCCCC1` [Compound 61] was tested, and the IC50 [1] was 2.1 µM.

`O=C(N[C@H](C(=O)NCC1CC1)c1ccccc1)c1nc2ccc(NC(=O)c3ccccc3-c3cn4ccsc4n3)cc2s1` [Compound 62] gave an IC50 [1] of 0.286 µM.

Work on `O=C(N[C@H](C(=O)NC1CCCCC1)c1ccccc1)c1nc2ccc(NC(=O)c3ccccc3-c3cn4ccsc4n3)cc2s1` [Compound 63] yielded an IC50 [1] of 0.082 µM.

`Cc1cccc(C(=O)NCC23CCC(C(=O)N[C@H](C(=O)N4CCCC4)c4ccccc4)(CC2)CC3)c1-c1ccc(C(C)(C)C)cc1` [Compound 65] was tested, and the IC50 [1] was 0.0052 µM and the IC50 (Table 6, assay of Example 2) was 0.0045 µM.

`Cc1cccc(C(=O)NCC23CCC(C(=O)N[C@H](C(=O)NCC4CC4)c4ccccc4)(CC2)CC3)c1-c1ccc(C(C)(C)C)cc1` [Compound 69] gave an IC50 [1] of 0.0089 µM.

Reference: patent publication US20080249130A1, “Gut microsomal triglyceride transport protein inhibitors” (Sirtris Pharmaceuticals, Inc., priority 2007, published 2008)
